Source: publication PMC7847937, “Search for Antimicrobial Activity Among Fifty-Two Natural and Synthetic Compounds Identifies Anthraquinone and Polyacetylene Classes That Inhibit Mycobacterium tuberculosis” (Frontiers in Microbiology, 2021)
≈ marks a conversion by molar mass, not a printed value. Where two headings read alike, the source gives them in different places.

Key:
THP-1 cells = settings: cited from earlier work
[1] = tested on: human monocytic THP-1 cell line; experiment: Cytotoxicity assay in THP-1 monocytes (CellTiter-Blue, 24 h); assay type: cell-based; settings: for IC50: Homo sapiens; for toxicity (in words): compared to the other active compounds
[2] = tested on: Mycobacterium tuberculosis H37Rv; experiment: MIC determination by resazurin microtiter plate assay (REMA) with CellTiter-Blue; assay type: cell-based; settings: for MIC: M. tuberculosis H37Rv, 7 days, two-fold dilutions 100 to 1.56 μg/mL, Gompertz fit; for antimycobacterial activity (in words): dose response, Figure 6
human monocyte cells = settings: cited from earlier work
[3] = tested on: Mycobacterium tuberculosis H37Rv; experiment: Compound library screen against M. tuberculosis at 100 μg/mL (CellTiter-Blue viability); assay type: cell-based; settings: library screen at 100 μg/mL, 7 days
AML12 hepatocytes = settings: cited from earlier work
[4] = THP-1 cells, 24 h treatment, 200 to 1.56 μg/mL, read-out: IC50
[5] = Mycobacterium tuberculosis, H37RV, 168 h, read-out: MIC

SMILES	IC50 [1, 4] [µg/mL]	MIC [2, 5] [µg/mL]	also measured
CC(C)=CCc1c(O)ccc(C(=O)/C=C/c2ccc(O)cc2)c1O [Compound C1, Isobavachalcone]	45.9 (≈ 141 µM)		cytotoxic concentration 50% (CC50) (THP-1 cells): 11.65 µg/mL
COC(=O)C1=C(N)Oc2cc(O)c3c(C)cc(=O)oc3c2C1c1ccc([N+](=O)[O-])cc1 (stereo not drawn) [Compound C10]	64.2 (≈ 151 µM)	25 to 71 (≈ 58.9 to 167 µM)	toxicity (in words) [1]: low toxicity; MIC [2]: 29.13 µg/mL (≈ 68.6 µM)
COC(=O)/C(C#N)=C/C=C/c1ccccc1 [Compound C13]		≥ 100	toxicity to human monocyte cells (in words) (human monocyte cells): moderately toxic; IC50 ([1]; THP-1, 24 h): 95.9 µg/mL (≈ 450 µM); antimycobacterial activity (in words) [2]: weak activity
COC(=O)C1=C(N)Oc2cc(O)cc(O)c2C1c1ccc(Cl)cc1 (stereo not drawn) [Compound C14]	47.2 (≈ 136 µM)	≥ 100	toxicity to human monocyte cells (in words) (human monocyte cells): moderately toxic; antimycobacterial activity (in words) [2]: weak antimycobacterial activity
COC(=O)C1=C(N)Oc2cc(O)cc(O)c2C1c1ccc(Br)cc1 (stereo not drawn) [Compound C15]		≥ 100	
COC(=O)C1=C(N)Oc2cc(O)cc(O)c2C1c1ccc([N+](=O)[O-])cc1 (stereo not drawn) [Compound C16]			anti-M. tuberculosis activity (in words) [3]: not active
CC1(C)C=Cc2c(ccc(C(=O)/C=C/c3ccc(O)cc3)c2O)O1 [Compound C21, 4-hydroxylonchocarpine]			anti-M. tuberculosis activity (in words) [3]: not mycobactericidal
COc1c(C=O)c(O)cc2c1C(=O)c1ccccc1C2=O [Compound C22, Damnacanthal]	21.4 (≈ 75.9 µM)	< 20	cytotoxic concentration 50% (CC50) (THP-1 cells): 8.87 µg/mL; MIC [2]: 13.07 µg/mL (≈ 46.3 µM)
CC1(C)C=Cc2cc3c(cc2O1)O[C@H]1c2ccc(O)cc2OC[C@@H]31 [Compound C23, Isoneorautenol]	44.3 (≈ 137 µM)	25 to 71 (≈ 77.6 to 220 µM)	concentration up to which no cytotoxicity was shown (AML12 hepatocytes): > 123.46 µM; MIC [2]: 49.22 µg/mL (≈ 153 µM)
CC(C)=CCc1c(O)c(CC=C(C)C)c2c(c1O)C(=O)C[C@@H](c1ccc(O)c(O)c1)O2 [Compound C24, 6,8-diprenyleriodictyol]		≥ 100	
COc1c(C)c(O)cc2c1C(=O)c1ccccc1C2=O [Compound C25, rubiadin 1-methyl ether]			anti-M. tuberculosis activity (in words) [3]: no anti-M. tuberculosis activity
CCOC(=O)C1=C(C)NC(C)=C(C(=O)OCC)C1c1ccc([N+](=O)[O-])cc1 [Compound C36]		≥ 100	
CCOC(=O)C1=C(C)NC(C)=C(C(=O)OCC)C1c1ccc(O)c(OC)c1 [Compound C38]		≥ 100	
CCOC(=O)C1=C(C)NC(C)=C(C(=O)OCC)C1c1cc(OC)c(OC)c(OC)c1 [Compound C40]		≥ 100	
CCOC(=O)C1=C(C)NC(C)=C(C(=O)OCC)C1c1cc(OC)c(O)c(OC)c1 [Compound C41]		≥ 100	
CCOC(=O)C1=C(C)N(c2ccccc2)C(C)=C(C(=O)OCC)C1c1ccc(O)cc1 [Compound C45]		≥ 100	
CCOC(=O)C1=C(C)N(c2ccccc2)C(C)=C(C(=O)OCC)C1c1cc(OC)c(O)c(OC)c1 [Compound C49]		≥ 100	
CC#CC#CC#CCCCO [Compound C51, Deca-4,6,8-triyn-1-ol]	170 (≈ 1170 µM)		toxicity (in words) [1]: low toxicity
OCCCC#CC#CC#CC#CCCCO [Compound C53, Tetradeca-4,6,8,10-tetrayne-1,14-diol]	17 (≈ 79.3 µM)	< 20	melting point: 116.5 to 117 °C; MIC [2]: 17.88 µg/mL (≈ 83.4 µM)
